Measured values taken from patent US11945826B2, “Hydroxypyridoxazepines as NRF2 activators” (GLAXOSMITHKLINE INTELLECTUAL PROPERTY DEVELOPMENT LIMITED, priority 2019, dated 2024).

Key:
Mouse PK Study = format: in vivo; settings: male CD1 mice, 30 mg/kg oral suspension, blood
Procedure: All studies were conducted after review by the GSK Institutional Animal Care and Use Committee and in accordance with the GSK Policy on the Care, Welfare and Treatment of Laboratory Animals. The oral suspension pharmacokinetic study was carried out on a single study day; a total of three male CD1 mice were used.
(§1) The compounds used in this study were the compound of Example 1, herein, and Compound A (the compound of Example 1 of WO 2018/109646).
The oral suspension dose was prepared in 1% aqueous methylcellulose. Each animal received a nominal dose of 30 mg/kg (10 mL/kg dose volume) as an oral gavage. Blood samples (approximately 0.025 mL each) were collected from a tail vein. Blood samples were collected prior to dosing and at target times of 15, 30, 60, 120, 240, 480, and 1440 minutes following oral gavage. A 25 μL aliquot was added to a non-heparinized tube containing 25 μL water and quick frozen on solid carbon dioxide and stored at approximately −80° C. until analyzed by liquid chromatography/tandem mass spectroscopy (LC/MS/MS) for test compound concentration.
Pharmacokinetic parameters for all in vivo PK studies were calculated using non-compartmental methods with Phoenix WinNonlin version 6.1.0 or 8.1.0. All parameters were calculated using actual blood sampling times and actual dosages for each animal. […]

human PXR = molecular target: T1, human PXR (Homo sapiens, UniProt O75469); test: Human PXR Activation Assay; format: cell-based; settings: for EC50: HepG2 transfected with human PXR and CYP3A4 promoter luciferase, 24 h; for Emax at 24 h: human, percent maximum induction compared to 10 μM rifampicin
T1 construct: expression vectors containing full length human PXR; expressed in transfected cells; host or cells: HepG2 (human hepatocellular carcinoma line), transient transfection with FuGENE
T1 sequence (O75469 1-434): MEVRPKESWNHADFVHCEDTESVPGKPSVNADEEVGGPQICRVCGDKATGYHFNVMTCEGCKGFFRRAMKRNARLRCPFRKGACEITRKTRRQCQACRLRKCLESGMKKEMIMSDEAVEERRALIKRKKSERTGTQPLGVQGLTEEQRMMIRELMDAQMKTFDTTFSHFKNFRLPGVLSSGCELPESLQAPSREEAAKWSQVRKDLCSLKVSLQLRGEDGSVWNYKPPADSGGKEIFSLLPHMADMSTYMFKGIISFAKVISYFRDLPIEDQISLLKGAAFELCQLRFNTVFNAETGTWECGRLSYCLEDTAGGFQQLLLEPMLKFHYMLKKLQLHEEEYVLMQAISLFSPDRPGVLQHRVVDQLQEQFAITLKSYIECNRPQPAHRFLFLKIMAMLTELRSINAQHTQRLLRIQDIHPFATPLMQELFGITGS
Procedure: Transactivation activity of PXR ligands was measured in a human hepatocellular carcinoma line (HepG2) batch transiently transfected using FuGENE™ with expression vectors containing full length human PXR and the human CYP3A4 promoter driving luciferase expression. Following transfection, cells are frozen until required for assay.
On day of assay, cells were recovered, counted on a CEDEX instrument then resuspended to a density of 50,000 cells/mL in phenol red-free DMEM-F12 supplemented with 10% charcoal/dextran-treated FBS. 20 μl of cell suspension was then dispensed to each well of white Nunc 384-well plates, containing […] of test compounds in DMSO. Cells were incubated for 24 h in the presence compound after which time […] of Steady-Lite™ luciferase substrate was added to each well. Luciferase activity was quantified by measurement on the Pherastar™ imager and activity was expressed as percent maximum induction as compared to induction by 10 μM rifampicin.

Rat PK Study = format: in vivo; settings: plasma, nominal 1 mg/kg 30-minute intravenous infusion; for MRT: read-out: Rat Pharmacokinetics MRT; for clearance: read-out: Rat Pharmacokinetics Total Clearance
Procedure: All studies were conducted after review by the GSK Institutional Animal Care and Use Committee and in accordance with the GSK Policy on the Care, Welfare and Treatment of Laboratory Animals. This study was conducted with a crossover design on two study days with a one-day recovery period between each study day. At least three days prior to the start of the study, three rats received surgically implanted femoral vein, femoral artery, and gastric catheters for infusion of test molecules, blood sampling, and oral dose administration, respectively. Dose solutions were filtered prior to administration and the actual dosage administered to the animals was quantified. All PK parameters were calculated based on the actual dosage administered to each animal. Urine was collected from 0-24 h following iv administration from each animal for determination of renal clearance.
as §1
The dose for intravenous administration was prepared in 20% Cavitron™ and 5% DMSO. The intravenous dose formulation was filtered through a 0.22-micron polytetrafluoroethylene (PTFE) filter prior to administration. The dose for oral solution administration was prepared in 6% Cavitron™ and 5% DMSO and was filtered through a 0.22-micron VWR PTFE filter prior to administration.
Each animal received a nominal dose of 1 mg/kg (4 mL/kg dose volume) as a 30-minute intravenous infusion on study day one. On study day two, each animal received a nominal dose of 2 mg/kg (16 mL/kg dose volume) as an oral gavage. Blood samples (approximately 0.11 mL each) were collected from the femoral artery catheter. […] Plasma was isolated from blood by centrifugation and a 30 μL aliquot was transferred to a non-heparinized tube, quick frozen on solid carbon dioxide and stored at approximately −80° C. until analyzed by liquid chromatography/tandem mass spectroscopy (LC/MS/MS) for test compound concentration.
Pharmacokinetic parameters for all in vivo PK studies were calculated using non-compartmental methods with Phoenix WinNonlin version 6.1.0 or 8.1.0. All parameters were calculated using actual blood sampling times and actual dosages for each animal. The extrapolated area under the curve (AUC0-inf) was determined using unweighted linear regression analysis of at least three log transformed concentrations visually assessed to be on the linear portion of the terminal elimination slope. Oral solution bioavailability was calculated in a non-crossover fashion using the mean intravenous dose and AUC0-inf values from the two intravenously dosed animals for the monkey PK study and in a crossover fashion for the rat PK study.

Mouse Pharmacokinetics Clearance/Bioavailability (Mouse PK Study) [mL/min/kg] | EC50 (human PXR) [µM] | Emax at 24 h (human PXR) [%] | MRT (Rat PK Study) [h] | clearance (Rat PK Study) [mL/min/kg] | Structure (SMILES)
15.6 | > 50 | 10 | 6.5 | 5.2 | CC[C@@H]1CN(Cc2cc([C@@H](CC(=O)O)c3ccc4c(nnn4C)c3C)ccc2C)Cc2nc(O)ccc2O1 [Example 1, (R)-3-(1,4-dimethyl-1H-benzo[d][1,2,3]triazol-5-yl)-3-(3-(((R)-2-ethyl-7-hydroxy-2,3-dihydropyrido[2,3-f][1,4]oxazepin-4(5H)-yl)methyl)-4-methylphenyl)propanoic acid]
31 | 25 | 56 | 4 | 1.9 | CC[C@@H]1CN(Cc2cc([C@@H](CC(=O)O)c3ccc4c(nnn4C)c3C)ccc2C)Cc2ncccc2O1 [Compound A, reference compound]
